Source: PubChem BioAssay AID270 (DTP/NCI, 2004)
Several values for one entry are separate records, joined by “and”; a condition that tells them apart may be missing. Identical values can stand only once. Records with an inconclusive call do not appear.

Tested on: BDF1 mice, s.c. Lewis lung carcinoma, T/C %
Test: NCI In Vivo Anticancer Drug Screen. Data for tumor model Lewis Lung Carcinoma (subcutaneous) in B6D2F1 (BDF1) mice
How it was run: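 First, mice carry a transplantable tumor. Next, groups receive either compound or vehicle. Finally, survival or tumor dimensions in the dosed animals are divided by the corresponding control figure.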

CC1CCC(NC(=O)N(CCCl)N=O)CC1 (centres undefined)
T/C (endpoint: median survival time, dose: 16.0 mg/kg/injection, schedule: Q07DX002 (ip), vehicle: saline with Tween-80, higher = longer survival): 83 % of control | T/C (endpoint: median survival time, dose: 16.0 mg/kg/injection, schedule: Q08DX002 (ip), vehicle: saline + alcohol, higher = longer survival): 105 % of control | T/C (endpoint: median survival time, dose: 16.0 mg/kg/injection, schedule: Q11DX002 (ip), vehicle: saline with Tween-80, higher = longer survival): 63 % of control | T/C (endpoint: median survival time, dose: 16.0 mg/kg/injection, schedule: Q11DX002 (oral), vehicle: saline with Tween-80, higher = longer survival): 103 % of control | T/C (endpoint: median survival time, dose: 18.0 mg/kg/injection, schedule: Q01DX001 (ip), vehicle: other, higher = longer survival): 118 % of control | T/C (endpoint: median survival time, dose: 20.0 mg/kg/injection, schedule: Q01DX001 (ip), vehicle: Klucel (hydroxypropylcellulose) (HPC), higher = longer survival): 115 % of control | T/C (endpoint: median survival time, dose: 22.0 mg/kg/injection, schedule: Q01DX005 (ip), vehicle: saline with Tween-80, higher = longer survival): 113 % of control | T/C (endpoint: median survival time, dose: 24.0 mg/kg/injection, schedule: Q07DX002 (ip), vehicle: saline with Tween-80, higher = longer survival): 77 % of control | T/C (endpoint: median survival time, dose: 24.0 mg/kg/injection, schedule: Q08DX002 (ip), vehicle: gum acacia, higher = longer survival): 165 % of control | T/C (endpoint: median survival time, dose: 24.0 mg/kg/injection, schedule: Q11DX002 (ip), vehicle: saline with Tween-80, higher = longer survival): 110 % of control | T/C (endpoint: median survival time, dose: 24.0 mg/kg/injection, schedule: Q11DX002 (oral), vehicle: saline with Tween-80, higher = longer survival): 103 % of control | T/C (endpoint: median survival time, dose: 25.0 mg/kg/injection, schedule: Q04DX004 (ip), vehicle: saline with Tween-80, higher = longer survival): 111 % of control | T/C (endpoint: median survival time, dose: 30.0 mg/kg/injection, schedule: Q01DX001 (ip), vehicle: Klucel (hydroxypropylcellulose) (HPC), higher = longer survival): 150 % of control | T/C (endpoint: median survival time, dose: 30.0 mg/kg/injection, schedule: Q01DX001 (ip), vehicle: saline with Tween-80, higher = longer survival): 160 % of control | T/C (endpoint: median survival time, dose: 32.0 mg/kg/injection, schedule: Q01DX001 (ip), vehicle: saline + alcohol, higher = longer survival): 86 % of control and 88 % of control | T/C (endpoint: median survival time, dose: 36.0 mg/kg/injection, schedule: Q10DX002 (ip), vehicle: gum acacia, higher = longer survival): 108 % of control | T/C (endpoint: median survival time, dose: 36.0 mg/kg/injection, schedule: Q12DX002 (ip), vehicle: gum acacia, higher = longer survival): 93 % of control | T/C (endpoint: median survival time, dose: 60.0 mg/kg/injection, schedule: Q01DX001 (ip), vehicle: Klucel (hydroxypropylcellulose) (HPC), higher = longer survival): 90 % of control | T/C (endpoint: median survival time, dose: 60.0 mg/kg/injection, schedule: Q01DX001 (ip), vehicle: saline with Tween-80, higher = longer survival): 112 % of control | T/C (endpoint: median survival time, dose: 64.0 mg/kg/injection, schedule: Q01DX001 (ip), vehicle: saline + alcohol, higher = longer survival): 57 % of control | T/C (endpoint: median survival time, dose: 128.0 mg/kg/injection, schedule: Q01DX001 (ip), vehicle: saline + alcohol, higher = longer survival): 49 % of control | T/C (endpoint: median tumor weight (est.), dose: 2.0 mg/kg/injection, schedule: Q01DX009 (ip), vehicle: Klucel (hydroxypropylcellulose) (HPC), higher = larger tumour): 82 % of control | T/C (endpoint: median tumor weight (est.), dose: 4.0 mg/kg/injection, schedule: Q01DX009 (ip), vehicle: Klucel (hydroxypropylcellulose) (HPC), higher = larger tumour): 51 % of control | T/C (endpoint: median tumor weight (est.), dose: 7.0 mg/kg/injection, schedule: Q01DX001 (ip), vehicle: DMSO, higher = larger tumour): 59 % of control | T/C (endpoint: median tumor weight (est.), dose: 7.0 mg/kg/injection, schedule: Q01DX001 (ip), vehicle: saline with Tween-80, higher = larger tumour): 90 % of control | T/C (endpoint: median tumor weight (est.), dose: 7.0 mg/kg/injection, schedule: Q01DX001 (sc), vehicle: olive oil, sesame oil, peanut oil, higher = larger tumour): 83 % of control | T/C (endpoint: median tumor weight (est.), dose: 7.5 mg/kg/injection, schedule: Q01DX001 (ip), vehicle: Klucel (hydroxypropylcellulose) (HPC), higher = larger tumour): 92 % of control | T/C (endpoint: median tumor weight (est.), dose: 8.0 mg/kg/injection, schedule: Q01DX009 (ip), vehicle: Klucel (hydroxypropylcellulose) (HPC), higher = larger tumour): 3 % of control | T/C (endpoint: median tumor weight (est.), dose: 11.0 mg/kg/injection, schedule: Q01DX001 (ip), vehicle: DMSO, higher = larger tumour): 16 % of control | T/C (endpoint: median tumor weight (est.), dose: 11.0 mg/kg/injection, schedule: Q01DX001 (ip), vehicle: saline with Tween-80, higher = larger tumour): 56 % of control | T/C (endpoint: median tumor weight (est.), dose: 11.0 mg/kg/injection, schedule: Q01DX001 (sc), vehicle: olive oil, sesame oil, peanut oil, higher = larger tumour): 53 % of control | T/C (endpoint: median tumor weight (est.), dose: 12.0 mg/kg/injection, schedule: Q01DX001 (ip), vehicle: gum acacia, higher = larger tumour): 41 % of control and 50 % of control | T/C (endpoint: median tumor weight (est.), dose: 15.0 mg/kg/injection, schedule: Q01DX001 (ip), vehicle: Klucel (hydroxypropylcellulose) (HPC), higher = larger tumour): 42 % of control | T/C (endpoint: median tumor weight (est.), dose: 16.0 mg/kg/injection, schedule: Q01DX001 (ip), vehicle: gum acacia, higher = larger tumour): 46 % of control | T/C (endpoint: median tumor weight (est.), dose: 16.0 mg/kg/injection, schedule: Q01DX001 (ip), vehicle: saline with Tween-80, higher = larger tumour): 71 % of control | T/C (endpoint: median tumor weight (est.), dose: 16.0 mg/kg/injection, schedule: Q01DX001 (sc), vehicle: olive oil, sesame oil, peanut oil, higher = larger tumour): 74 % of control | T/C (endpoint: median tumor weight (est.), dose: 24.0 mg/kg/injection, schedule: Q01DX001 (ip), vehicle: saline with Tween-80, higher = larger tumour): 31 % of control | T/C (endpoint: median tumor weight (est.), dose: 24.0 mg/kg/injection, schedule: Q01DX001 (sc), vehicle: olive oil, sesame oil, peanut oil, higher = larger tumour): 18 % of control | T/C (endpoint: median tumor weight (est.), dose: 30.0 mg/kg/injection, schedule: Q01DX001 (ip), vehicle: Klucel (hydroxypropylcellulose) (HPC), higher = larger tumour): 3 % of control
